From patent US8846653B2, “Delta-tocotrienol treatment and prevention of pancreatic cancer” (University of South Florida, priority 2006, dated 2014)

Tested on: MIA PaCa-2 cells (pZWL vector and myrAKT)
Assay: Cell death (trypan blue) in vector and myrAKT MIA PaCa-2 cells
Type: cell-based, human
Settings: MIA PaCa-2 vector vs myr-AKT cells, 24 hours, compared to vehicle
Protocol: FIG. 12 is a graph wherein MIA PaCa-2 cells (pZWL vector and myrAKT) were treated without serum vehicle or δ-tocotrienol (50 μM) for 24 hours, with and without a 10-hour caspase 8/3 inhibitor pretreatment. Cells were also treated with TRAIL as a positive control. Cells were then harvested, fixed, permeablized and stained with trypan blue.
To further identify the role of AKT in the apoptotic pathways noted in Example 2, functional overexpression of CA-AKT was analyzed in Mia-PaCa2 pancreatic cancer cells. MIA PaCa-2 cells were treated with pZWL vector and myrAKT, a retroviral vector encoding myristoylated AKT, with or without serum, vehicle, or δ-tocotrienol (40 or 50 μM) for 24 hours, with and without a 10-hour caspase 8 inhibitor pretreatment. Cells were also treated with TRAIL as a positive control. Cells were then harvested, fixed, permeablized and stained with trypan blue.
The myristoylated AKT rescued δ-tocotrienol suppression PI3K-AKT signaling. The MiaPaCa-2 parental cell lines were stably transfected using constitutively active myristoylated AKT in a pWZL vector construct to generate MiaPaCa-2AKT cells. […] Lastly, pretreatment with caspase 3, 8 and 9 inhibitors rescued tocotrienol induced cell death.

SMILES: CC(C)=CCC/C(C)=C/CC/C(C)=C/CC[C@]1(C)CCc2cc(O)cc(C)c2O1 [T3 delta, delta tocotrienol]
- cell death: induced more cell death in the vector cells than the myr-AKT cells
